Experimental data: PubChem BioAssay AID2060503 (Molecular Pharmacology Branch, DTP, NCI, 2025)
pIC50: −log10 of the molar value.

Tested on: 817829-284-R-J1-PDC complex spheroids, viability
Test: Anticancer human tumor 817829-284-R-J1-PDC patient-derived colon adenocarcinoma cell line growth inhibition [GQUAD]
Settings: for pIC50: curve of first compound; for viability, T/C: stronger effect = lower value
Source text: DNA G-quadruplex Stabilizer Agents in Combinations in Complex Spheroids
A high-throughput screen of multi-cell type tumor spheroids was designed to identify active combinations of DNA G-quadruplex stabilizer agents and targeted small molecules. Complex spheroids include a stromal component modeled by human endothelial cells (HUVEC) and fibroblasts modeled by human mesenchymal stem cells (MSCs). The concentration ranges selected for each drug and investigational agent were based upon clinically achievable concentrations if the clinical Cmax of the agent was known.
Compounds. The drugs and investigational agents: pidnarulex (CX-5461; NSC782164), APTO-253 (NSC789042), BRACO-19 (NSC847499), peposertib (NSC802822), ceralasertib (NSC780249), elimusertib (NSC800525), camonsertib (NSC841442), AZD-1390 (NSC803789), olaparib (NSC753686), talazoparib (NSC767125), ART-558 (NSC835418), sotorasib (NSC818433), MRTX-1133 (NSC836407), SN-38 (NSC673596), topotecan (NSC609699), etoposide (NSC141540), doxorubicin (NSC123127), gemcitabine (NSC613327), 5-fluorouracil (NSC19893), paclitaxel (NSC125973), vemurafenib (NSC761431), panobinostat (NSC761190), R-306465 (JNJ-16241199; NSC773264), adavosertib (NSC754352), TP-3654 (NSC805149), carboplatin (NSC241240), KSQ-4279 (NSC840948), and staurosporine (NSC755774) were obtained from the National Cancer Institute (NCI) Developmental Therapeutics Program Chemical Repository (34). The FDA-approved anticancer drug set is available from the NCI Developmental Therapeutics Program. […] The stock solutions were prepared in dimethyl sulfoxide (DMSO, Sigma-Aldrich, St. Louis, MO, cat. D2650) at 800-fold the tested concentration and stored at -70 degrees C prior to their use. All drugs and investigational agents were tested over a range starting from a high concentration at or near the clinical Cmax and decreasing in half-log increments. If the clinical Cmax for an agent had not been determined, the highest concentration tested was 10 microM.
2.3 Cell Culture. All cells were maintained in an incubator at 37 degrees C and 5% CO2 with 95% humidity. The PDC lines were cultured according to standard operating procedures established by the NCI PDMR. All PDCs were thawed and cultured in Matrigel-coated flasks prepared with a working solution of 1X Ham's F-12 nutrient mix, without supplementation (Invitrogen, cat. 11765054), 100 U/mL penicillin-streptomycin (Invitrogen, cat. 15140122), and 2.5% Matrigel (Corning Inc., cat. 354248) for the first three passages. The 857933-349-R-J2-PDC line was cultured in 6C/Colon 1B media, which includes advanced DMEM/F-12 (Thermo Fisher Scientific, cat. 12634028), 10 mM HEPES (Thermo Fisher Scientific, cat. 15630080), 1X GlutaMAX supplement (Thermo Fisher Scientific, cat. 35050061), 0.1 mg/mL primocin (InvivoGen, cat. ant-pm-2), 10% defined fetal bovine serum, heat inactivated (HyClone Laboratories Inc., cat. SH30070.03HI), 50% L-WRN conditioned media (ATCC, cat. CRL-3276), 1.25 mM N-Acetyl-L-cysteine (Sigma-Aldrich, cat. A9165), 10 mM nicotinamide (Sigma-Aldrich, cat. N0636), 1X B-27 supplement (Thermo Fisher Scientific, cat. 17504044), 1X N-2 supplement (Thermo Fisher Scientific, cat. 17502048), 10 microM Y-27632 dihydrochloride (Tocris Bioscience, cat. 1254), and 50 ng/mL human EGF recombinant protein (Thermo Fisher Scientific, cat. PHG0311). The 485176-168-R4-J1-PDC line was cultured in Panc media, which includes all 6C/Colon 1B media components plus 100 ng/mL human FGF-10 (Thermo Fisher Scientific, cat. 100-26), 500 nM SB-431542 (Selleckchem, cat. S1067), and gastrin (Tocris, cat. 3006).
[…]

[1] = second compound 0.0316 µM, first compound 0.0316 µM
[2] = second compound 0.0316 µM, first compound 0.1 µM
[3] = second compound 0.0316 µM, first compound 0.316 µM
[4] = second compound 0.0316 µM, first compound 1 µM
[5] = second compound 0.0316 µM, first compound 3.16 µM
[6] = second compound 0.0316 µM, first compound 10 µM
[7] = second compound 0.1 µM, first compound 0.0316 µM
[8] = second compound 0.1 µM, first compound 0.1 µM
[9] = second compound 0.1 µM, first compound 0.316 µM
[10] = second compound 0.1 µM, first compound 1 µM
[11] = second compound 0.1 µM, first compound 3.16 µM
[12] = second compound 0.1 µM, first compound 10 µM
[13] = second compound 0.316 µM, first compound 0.0316 µM
[14] = second compound 0.316 µM, first compound 0.1 µM
[15] = second compound 0.316 µM, first compound 0.316 µM
[16] = second compound 0.316 µM, first compound 1 µM
[17] = second compound 0.316 µM, first compound 3.16 µM
[18] = second compound 0.316 µM, first compound 10 µM
[19] = second compound 1 µM, first compound 0.0316 µM
[20] = second compound 1 µM, first compound 0.1 µM
[21] = second compound 1 µM, first compound 0.316 µM
[22] = second compound 1 µM, first compound 1 µM
[23] = second compound 1 µM, first compound 3.16 µM
[24] = second compound 1 µM, first compound 10 µM
[25] = second compound 3.16 µM, first compound 0.0316 µM
[26] = second compound 3.16 µM, first compound 0.1 µM
[27] = second compound 3.16 µM, first compound 0.316 µM
[28] = second compound 3.16 µM, first compound 1 µM
[29] = second compound 3.16 µM, first compound 3.16 µM
[30] = second compound 3.16 µM, first compound 10 µM
[31] = second compound 10 µM, first compound 0.0316 µM
[32] = second compound 10 µM, first compound 0.1 µM
[33] = second compound 10 µM, first compound 0.316 µM
[34] = second compound 10 µM, first compound 1 µM
[35] = second compound 10 µM, first compound 3.16 µM
[36] = second compound 10 µM, first compound 10 µM
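Note: spheroids exposed to agents for 7 days before readout.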
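Throughout, for viability, T/C: percent viability relative to DMSO vehicle control taken as 100%.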

COc1ccc([C@@H](O)c2cc(-c3ncnc4cc(N5CCOCC5)ccc34)c(F)cc2Cl)nn1 + CN(C)c1ccc(Nc2c3ccc(NC(=O)CCN4CCCC4)cc3nc3cc(NC(=O)CCN4CCCC4)ccc23)cc1
pIC50 (second compound 0.0316 µM): < 5.00
pIC50 (second compound 0.1 µM): < 5.00
pIC50 (second compound 0.316 µM): < 5.00
pIC50 (second compound 1 µM): 5.07
pIC50 (second compound 3.16 µM): 5.53
pIC50 (second compound 10 µM): 5.94
viability, T/C [1]: 104%
viability, T/C [2]: 98.7%
viability, T/C [3]: 103%
viability, T/C [4]: 85.5%
viability, T/C [5]: 88%
viability, T/C [6]: 58.1%
viability, T/C [7]: 86.8%
viability, T/C [8]: 100%
viability, T/C [9]: 94.4%
viability, T/C [10]: 94.7%
viability, T/C [11]: 63.5%
viability, T/C [12]: 54.7%
viability, T/C [13]: 92.2%
viability, T/C [14]: 107%
viability, T/C [15]: 115%
viability, T/C [16]: 95.5%
viability, T/C [17]: 76%
viability, T/C [18]: 56.3%
viability, T/C [19]: 88.9%
viability, T/C [20]: 106%
viability, T/C [21]: 98%
viability, T/C [22]: 86.5%
viability, T/C [23]: 68.8%
viability, T/C [24]: 47%
viability, T/C [25]: 93.6%
viability, T/C [26]: 96.3%
viability, T/C [27]: 96.9%
viability, T/C [28]: 73.9%
viability, T/C [29]: 50.1%
viability, T/C [30]: 33.4%
viability, T/C [31]: 107%
viability, T/C [32]: 85.9%
viability, T/C [33]: 85.7%
viability, T/C [34]: 47.5%
viability, T/C [35]: 31.3%
viability, T/C [36]: 13.5%

O=C(c1cc(Cc2n[nH]c(=O)c3ccccc23)ccc1F)N1CCN(C(=O)C2CC2)CC1 + CN(C)c1ccc(Nc2c3ccc(NC(=O)CCN4CCCC4)cc3nc3cc(NC(=O)CCN4CCCC4)ccc23)cc1
pIC50 (second compound 0.0316 µM): < 5.00
pIC50 (second compound 0.1 µM): < 5.00
pIC50 (second compound 0.316 µM): < 5.00
pIC50 (second compound 1 µM): < 5.00
pIC50 (second compound 3.16 µM): < 5.00
pIC50 (second compound 10 µM): < 5.00
viability, T/C [1]: 108%
viability, T/C [2]: 97.8%
viability, T/C [3]: 102%
viability, T/C [4]: 90.7%
viability, T/C [5]: 78.8%
viability, T/C [6]: 58.3%
viability, T/C [7]: 101%
viability, T/C [8]: 107%
viability, T/C [9]: 108%
viability, T/C [10]: 98.6%
viability, T/C [11]: 100%
viability, T/C [12]: 60.2%
viability, T/C [13]: 102%
viability, T/C [14]: 97.6%
viability, T/C [15]: 107%
viability, T/C [16]: 93%
viability, T/C [17]: 95.2%
viability, T/C [18]: 66.8%
viability, T/C [19]: 107%
viability, T/C [20]: 96.7%
viability, T/C [21]: 99%
viability, T/C [22]: 93.7%
viability, T/C [23]: 93.7%
viability, T/C [24]: 62.5%
viability, T/C [25]: 100%
viability, T/C [26]: 103%
viability, T/C [27]: 94.1%
viability, T/C [28]: 99.5%
viability, T/C [29]: 94.9%
viability, T/C [30]: 58.3%
viability, T/C [31]: 97.4%
viability, T/C [32]: 102%
viability, T/C [33]: 94.5%
viability, T/C [34]: 88.4%
viability, T/C [35]: 70.7%
viability, T/C [36]: 52.5%
